What all share (format): in vivo, Arabidopsis thaliana
Test [1] concerns Homozygous AAD-12 (v1) gene T4 Arabidopsis plants. The test is described as follows: Herbicide response of homozygous AAD-12 (v1) T4 Arabidopsis. Conditions: for % Injury 20-40% (individuals) / % Injury <20% (individuals) / % Injury >40% (individuals) / % Injury Ave: 14 DAT. The text has this: (§1) T1 plants were then randomly assigned to various rates of 2,4-D. For Arabidopsis, 50 g ae/ha 2,4-D is an effective dose to distinguish sensitive plants from ones with meaningful levels of resistance. Elevated rates were also applied to determine relative levels of resistance (280, 560, 1120, or 2240 g ae/ha). Tables 11 and 12 show comparisons drawn to an aryloxyalkanoate herbicide resistance gene (AAD-12 (v1)) previously described in PCT/US2006/042133.
(§2) All auxin herbicide applications were made using the DeVilbiss sprayer as described above to apply 703 L/ha spray volume (0.4 ml solution/3-inch pot) or applied by track sprayer in a 187 L/ha spray volume. 2,4-D used was either technical grade (Sigma, St. Louis, Mo.) dissolved in DMSO and diluted in water (<1% DMSO final concentration) or the commercial dimethylamine salt formulation (456 g ae/L, NuFarm, St Joseph, Mo.). Dichlorprop used was commercial grade formulated as potassium salt of R-dichlorprop (600 g ai/L, AH Marks). As herbicide rates increased beyond 800 g ae/ha, the pH of the spray solution became exceedingly acidic, burning the leaves of young, tender Arabidopsis plants and complicating evaluation of the primary effects of the herbicides.
(§3) The first Arabidopsis transformations were conducted using AAD-13 (v1) (plant optimized gene). T1 transformants were first selected from the background of untransformed seed using a glufosinate selection scheme. Over 160,000 T1 seed were screened and 238 glufosinate resistant plants were identified (PAT gene), equating to a transformation/selection frequency of 0.15% which lies in the normal range of selection frequency of constructs where PAT+Liberty are used for selection. T1 plants selected above were subsequently transplanted to individual pots and sprayed with various rates of commercial aryloxyalkanoate herbicides. Table 11 compares the response of AAD-13 (v1) and control genes to impart 2,4-D resistance to Arabidopsis T1 transformants. Response is presented in terms of % visual injury 2 WAT. […] An arithmetic mean and standard deviation is presented for each treatment. The range in individual response is also indicated in the last column for each rate and transformation. PAT/Cry1F-transformed Arabidopsis served as an auxin-sensitive transformed control. The AAD-13 (v1) gene imparted herbicide resistance to individual T1 Arabidopsis plants. Within a given treatment, the level of plant response varied greatly and can be attributed to the fact each plant represents an independent transformation event. Of important note, at each 2,4-D rate tested, there were individuals that were unaffected while some were severely affected. […] At high rates the spray solution becomes highly acidic unless buffered therefore some of the injury may be attributed to the acidity of the spray solution. Arabidopsis grown mostly in the growth chamber has a very thin cuticle and severe burning effects can complicate testing at these elevated rates. Nonetheless, many individuals have survived 2,240 g ae/ha 2,4-D with little or no injury.
(§4) The ability of AAD-13 (v1) to provide resistance to other aryloxyalkanoate auxin herbicides in transgenic Arabidopsis was determined by foliar application of various substrates. T2 generation Arabidopsis seed was stratified, and sown into selection trays much like that of Arabidopsis (Example 6.4). A transformed-control line containing PAT and the insect resistance gene Cry1F was planted in a similar manner. Seedlings were transferred to individual 3-inch pots in the greenhouse. All plants were sprayed with the use of a track sprayer set at 187 L/ha. The plants were sprayed with a range of pyridyloxyacetate herbicides: 200-800 g ae/ha triclopyr (Garlon 3A, Dow AgroSciences) and 200-800 g ae/ha fluoroxypyr (Starane, Dow AgroSciences). […]

In test [2] the test system is PAT/Cry1F-transformed Arabidopsis (auxin-sensitive control). The test is described as follows: Herbicide response of PAT/Cry1F transformed control Arabidopsis. Conditions: for % Injury 20-40% (individuals) / % Injury <20% (individuals) / % Injury >40% (individuals) / % Injury Ave: 14 DAT.
Text: as §1, §2, §3, §4

The test system of test [3] is Segregating T2 AAD-13 (v1) Arabidopsis plants (pDAB4114.01.094). In words: Foliar pyridyloxyacetate response of segregating T2 AAD-13 (v1) Arabidopsis. The protocol: The ability of AAD-13 (v1) to provide resistance to other aryloxyalkanoate auxin herbicides in transgenic Arabidopsis was determined by foliar application of various substrates. T2 generation Arabidopsis seed was stratified, and sown into selection trays much like that of Arabidopsis (Example 6.4). A transformed-control line containing PAT and the insect resistance gene Cry1F was planted in a similar manner. Seedlings were transferred to individual 3-inch pots in the greenhouse. All plants were sprayed with the use of a track sprayer set at 187 L/ha. The plants were sprayed with a range of pyridyloxyacetate herbicides: 200-800 g ae/ha triclopyr (Garlon 3A, Dow AgroSciences) and 200-800 g ae/ha fluoroxypyr (Starane, Dow AgroSciences). The 2,4-D metabolite resulting from AAD-13 activity, 2,4-dichlorophenol (DCP, Sigma) (at a molar equivalent to 280-2240 g ae/ha of 2,4-D, technical grade will also be tested. All applications were formulated in water. Each treatment was replicated 3-4 times. Plants were evaluated at 3 and 14 days after treatment.

The structures appear in SMILES notation.

In the case of `CNC.O=C(O)COc1ccc(Cl)cc1Cl` [2,4-D DMA], the “% Injury 20-40% (individuals)” value in test [1] (280 g ae/ha postemergence) is 0; in test [1] (560 g ae/ha postemergence) it was 0; in test [1] (1120 g ae/ha postemergence) it was 0; in test [1] (2240 g ae/ha postemergence) it was 3; in test [2] (280 g ae/ha postemergence) it was 0; in test [2] (560 g ae/ha postemergence), 0. Besides, the “% Injury 20-40% (individuals)” value in test [2] (1120 g ae/ha postemergence) and in test [2] (2240 g ae/ha postemergence) was 0 throughout. Moreover, the “% Injury <20% (individuals)” value in test [1] (280 g ae/ha postemergence) is on record as 20; in test [1] (560 g ae/ha postemergence), 20; in test [1] (1120 g ae/ha postemergence) it was 20; in test [1] (2240 g ae/ha postemergence), 16; in test [2] (280 g ae/ha postemergence), 0; in test [2] (560 g ae/ha postemergence) it was 0. Besides, the “% Injury <20% (individuals)” value in test [2] (1120 g ae/ha postemergence) and in test [2] (2240 g ae/ha postemergence) was 0 in each case. The “% Injury >40% (individuals)” value in test [1] (280 g ae/ha postemergence) is recorded as 0; in test [1] (560 g ae/ha postemergence), 0; in test [1] (1120 g ae/ha postemergence) it was 0; in test [1] (2240 g ae/ha postemergence) it was 1; in test [2] (280 g ae/ha postemergence) it was 20; in test [2] (560 g ae/ha postemergence), 20. For the same molecule, the “% Injury >40% (individuals)” value in test [2] (1120 g ae/ha postemergence) and in test [2] (2240 g ae/ha postemergence) was 20 each time. Also, the “% Injury Ave” value in test [1] (280 g ae/ha postemergence) was 0%; in test [1] (560 g ae/ha postemergence), 1%; in test [1] (1120 g ae/ha postemergence), 2%; in test [1] (2240 g ae/ha postemergence), 13%; in test [2] (280 g ae/ha postemergence), 100%; in test [2] (560 g ae/ha postemergence) it was 100%. Further, the “% Injury Ave” value in test [2] (1120 g ae/ha postemergence) and in test [2] (2240 g ae/ha postemergence) was 100% in each case.
Regarding `C[C@@H](Oc1ccc(Cl)cc1Cl)C(=O)O` [R-dichloroprop, R-dichlorprop], in test [1] (800 g ae/ha postemergence), the “% Injury 20-40% (individuals)” value is 0, the “% Injury <20% (individuals)” value came out at 0, the “% Injury >40% (individuals)” value came to 20 and the “% Injury Ave” value came out at 100%.
In the case of `Nc1c(Cl)c(F)nc(OCC(=O)O)c1Cl` [fluoroxypyr], the “Ave. % Injury 14DAT” value in test [1] (200 g ae/ha foliar-applied) is 48%; in test [1] (400 g ae/ha foliar-applied) it was 55%; in test [1] (800 g ae/ha foliar-applied), 60%; in test [2] (200 g ae/ha foliar-applied), 100%; in test [2] (400 g ae/ha foliar-applied) it was 100%; in test [2] (800 g ae/ha foliar-applied) it was 100%. Further, the “Ave. % Injury 14DAT” value in test [3] (200 g ae/ha foliar-applied) worked out at 10%; in test [3] (400 g ae/ha foliar-applied), 16%; in test [3] (800 g ae/ha foliar-applied) it was 55%. Moreover, the “rate up to which robust resistance is provided” value in test [3] (foliar application) is reported as “up to 400 g ae/ha”.
In the case of `O=C(O)COc1nc(Cl)c(Cl)cc1Cl` [triclopyr], the “Ave. % Injury 14DAT” value in test [1] (200 g ae/ha foliar-applied) turned out to be 25%; in test [1] (400 g ae/ha foliar-applied), 33%; in test [1] (800 g ae/ha foliar-applied) it was 79%; in test [2] (200 g ae/ha foliar-applied) it was 100%; in test [2] (400 g ae/ha foliar-applied) it was 100%; in test [2] (800 g ae/ha foliar-applied), 100%. Also, the “Ave. % Injury 14DAT” value amounted to 75% in test [3] (200 g ae/ha foliar-applied), 90% in test [3] (400 g ae/ha foliar-applied) and 100% in test [3] (800 g ae/ha foliar-applied).

For the origin of these results see patent US9062284B2, “Uses and detection of herbicide resistance genes for resistance to aryloxyalkanoate herbicides” (Dow ArgoSciences LLC, priority 2007, dated 2015).
